Measured values: patent US20240398784A1, “C-LINKED ISOQUINOLINE AMIDES AS LRRK2 INHIBITORS, PHARMACEUTICAL COMPOSITIONS, AND USES THEREOF” (Merck Sharp & Dohme LLC, priority 2021, published 2024)

Target: LRRK2 G2019S (Homo sapiens, UniProt Q5S007, G2019S)
Assay: LRRK2 G2019S Km ATP LanthaScreen assay
Assay type: biochemical
Conditions: read-out: LRRK2 pIC50 (converted)

LRRK2 G2019S, sequence (Q5S007 whole entry G2019S): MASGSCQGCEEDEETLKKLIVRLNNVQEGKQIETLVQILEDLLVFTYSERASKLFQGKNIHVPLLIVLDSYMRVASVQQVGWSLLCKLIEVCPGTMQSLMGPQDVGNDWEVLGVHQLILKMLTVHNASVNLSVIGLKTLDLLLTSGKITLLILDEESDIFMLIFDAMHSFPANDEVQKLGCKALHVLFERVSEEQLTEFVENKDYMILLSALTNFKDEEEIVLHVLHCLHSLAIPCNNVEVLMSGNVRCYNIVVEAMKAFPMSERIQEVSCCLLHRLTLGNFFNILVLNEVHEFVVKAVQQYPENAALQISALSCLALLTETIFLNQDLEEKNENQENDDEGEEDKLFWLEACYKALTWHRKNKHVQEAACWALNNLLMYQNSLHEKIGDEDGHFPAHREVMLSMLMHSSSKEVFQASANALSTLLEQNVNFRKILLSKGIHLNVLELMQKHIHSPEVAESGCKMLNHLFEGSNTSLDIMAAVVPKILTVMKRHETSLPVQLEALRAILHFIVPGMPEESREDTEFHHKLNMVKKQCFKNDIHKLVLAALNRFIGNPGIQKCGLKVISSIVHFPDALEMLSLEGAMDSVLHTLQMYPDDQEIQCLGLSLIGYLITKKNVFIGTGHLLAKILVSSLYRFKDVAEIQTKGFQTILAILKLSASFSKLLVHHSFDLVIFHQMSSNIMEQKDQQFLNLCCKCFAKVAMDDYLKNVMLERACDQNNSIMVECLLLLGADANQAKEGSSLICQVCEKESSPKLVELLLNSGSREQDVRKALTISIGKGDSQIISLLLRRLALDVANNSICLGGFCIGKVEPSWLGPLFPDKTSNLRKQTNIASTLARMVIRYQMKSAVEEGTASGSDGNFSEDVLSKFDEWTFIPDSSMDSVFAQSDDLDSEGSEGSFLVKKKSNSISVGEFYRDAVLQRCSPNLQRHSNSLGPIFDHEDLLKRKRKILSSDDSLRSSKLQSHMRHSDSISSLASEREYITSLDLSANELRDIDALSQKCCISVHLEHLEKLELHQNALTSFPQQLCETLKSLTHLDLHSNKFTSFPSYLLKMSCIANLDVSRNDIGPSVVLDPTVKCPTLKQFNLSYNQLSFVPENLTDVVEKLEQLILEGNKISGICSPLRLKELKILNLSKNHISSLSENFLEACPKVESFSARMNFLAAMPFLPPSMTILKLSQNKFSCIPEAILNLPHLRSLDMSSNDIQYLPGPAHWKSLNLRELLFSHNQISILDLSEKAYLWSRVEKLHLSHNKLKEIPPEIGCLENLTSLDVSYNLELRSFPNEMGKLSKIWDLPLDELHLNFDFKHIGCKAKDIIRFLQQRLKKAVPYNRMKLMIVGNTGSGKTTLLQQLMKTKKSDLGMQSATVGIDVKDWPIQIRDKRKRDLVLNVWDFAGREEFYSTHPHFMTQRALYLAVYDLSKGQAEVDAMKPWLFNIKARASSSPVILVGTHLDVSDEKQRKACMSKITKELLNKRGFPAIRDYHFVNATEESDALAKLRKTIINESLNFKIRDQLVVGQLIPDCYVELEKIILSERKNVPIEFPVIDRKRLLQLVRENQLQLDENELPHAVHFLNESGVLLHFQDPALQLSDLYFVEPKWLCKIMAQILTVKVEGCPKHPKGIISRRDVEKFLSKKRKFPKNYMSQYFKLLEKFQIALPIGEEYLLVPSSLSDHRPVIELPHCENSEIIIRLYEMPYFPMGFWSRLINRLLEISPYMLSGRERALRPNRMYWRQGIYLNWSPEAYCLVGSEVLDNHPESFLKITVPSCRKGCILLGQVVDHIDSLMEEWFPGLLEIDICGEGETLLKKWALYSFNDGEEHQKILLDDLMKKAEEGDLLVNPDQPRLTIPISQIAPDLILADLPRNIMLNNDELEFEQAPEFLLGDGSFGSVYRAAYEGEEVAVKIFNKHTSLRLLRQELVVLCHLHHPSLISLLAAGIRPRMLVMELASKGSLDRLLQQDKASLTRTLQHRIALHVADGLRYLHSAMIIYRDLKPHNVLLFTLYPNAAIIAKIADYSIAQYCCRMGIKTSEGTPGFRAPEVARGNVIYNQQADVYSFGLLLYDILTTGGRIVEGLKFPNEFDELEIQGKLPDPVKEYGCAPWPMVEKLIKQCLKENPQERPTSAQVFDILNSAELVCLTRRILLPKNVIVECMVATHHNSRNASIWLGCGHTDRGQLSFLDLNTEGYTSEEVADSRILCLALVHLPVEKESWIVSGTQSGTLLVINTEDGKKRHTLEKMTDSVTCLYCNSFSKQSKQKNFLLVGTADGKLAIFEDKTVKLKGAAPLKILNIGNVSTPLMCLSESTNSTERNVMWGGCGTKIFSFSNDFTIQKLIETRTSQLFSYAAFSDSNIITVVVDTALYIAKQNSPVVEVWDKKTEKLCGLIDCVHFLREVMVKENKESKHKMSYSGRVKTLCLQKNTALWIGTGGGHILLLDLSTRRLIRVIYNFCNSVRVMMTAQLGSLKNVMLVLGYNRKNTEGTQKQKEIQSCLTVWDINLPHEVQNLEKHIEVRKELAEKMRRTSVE

**Q.** With Cc1cc2cnc(NC(=O)C3CC34CCOC4)cc2cc1C1CCN(C2(C)COCC2F)CC1 (single isomer, unassigned) [Ex-15.13, N-(6-(1-(4-fluoro-3-methyltetrahydrofuran-3-yl)piperidin-4-yl)-7-methylisoquinolin-3-yl)-5-oxaspiro[2.4]heptane-1-carboxamide] as the compound, how does the IC50 read?
**A.** 2.69 nM

**Q.** Which IC50 does the source give for Cc1cc2cnc(NC(=O)C3CC34CCOC4)cc2cc1C1CCN(C2(C)COCC2F)CC1 (single isomer, unassigned) [Ex-15.14, N-(6-(1-(4-fluoro-3-methyltetrahydrofuran-3-yl)piperidin-4-yl)-7-methylisoquinolin-3-yl)-5-oxaspiro[2.4]heptane-1-carboxamide] here?
**A.** 3.72 nM

**Q.** With CCC1C(C(=O)Nc2cc3cc(C4CCN(C5(C)COCC5F)CC4)c(C)cc3cn2)C1c1cnn(C)c1 (single isomer, unassigned) [Ex-15.15, 2-ethyl-N-(6-(1-(4-fluoro-3-methyltetrahydrofuran-3-yl)piperidin-4-yl)-7-methylisoquinolin-3-yl)-3-(1-methyl-1H-pyrazol-4-yl)cyclopropane-1-carboxamide] as the compound, how does the IC50 read?
**A.** 58.9 nM

**Q.** Which IC50 does the source give for Cc1cc2cnc(NC(=O)C3CC34CCOCC4)cc2cc1C1CCN(C2(C)COCC2O)CC1 (single isomer, unassigned) [Ex-15.16, N-(6-(1-(4-hydroxy-3-methyltetrahydrofuran-3-yl)piperidin-4-yl)-7-methylisoquinolin-3-yl)-6-oxaspiro[2.5]octane-1-carboxamide] here?
**A.** 0.0813 nM

**Q.** How did the IC50 turn out when Cc1cc2cnc(NC(=O)C3CC3c3ccn(C)n3)cc2cc1C1CCN(C2(C)COCC2F)CC1 (single isomer, unassigned) [Ex-16.1] was run?
**A.** 0.0813 nM

**Q.** Cc1cc2cnc(NC(=O)C3CC3c3cnn(C)c3)cc2cc1C1CC12CC2 (single isomer, unassigned) [Ex-16.3, 2-(1-methyl-1H-pyrazol-4-yl)-N-(7-methyl-6-(spiro[2.2]pentan-1-yl)isoquinolin-3-yl)cyclopropane-1-carboxamide] was tested. Which IC50 did it give?
**A.** 10.5 nM

**Q.** Cc1cc2cnc(NC(=O)C3CC3c3cnn(C)c3)cc2cc1C1CC12CC2 (single isomer, unassigned) [Ex-16.4, 2-(1-methyl-1H-pyrazol-4-yl)-N-(7-methyl-6-(spiro[2.2]pentan-1-yl)isoquinolin-3-yl)cyclopropane-1-carboxamide] was tested. Which IC50 did it give?
**A.** 28.8 nM

**Q.** With CCOC1CC2(C1)CC2C(=O)Nc1cc2cc(C3CCN(C4(C)COCC4F)CC3)c(C)cc2cn1 (single isomer, unassigned) [Ex-16.5, 5-ethoxy-N-(6-(1-(4-fluoro-3-methyltetrahydrofuran-3-yl)piperidin-4-yl)-7-methylisoquinolin-3-yl)spiro[2.3]hexane-1-carboxamide] as the compound, how does the IC50 read?
**A.** 0.0813 nM

**Q.** With Cc1cc2cnc(NC(=O)C3C(C)C3c3cnn(C)c3)cc2cc1C1CCN(C2(C)COCC2F)CC1 (single isomer, unassigned) [Ex-16.7, N-(6-(1-(4-fluoro-3-methyltetrahydrofuran-3-yl)piperidin-4-yl)-7-methylisoquinolin-3-yl)-2-methyl-3-(1-methyl-1H-pyrazol-4-yl)cyclopropane-1-carboxamide] as the compound, how does the IC50 read?
**A.** 0.0813 nM

**Q.** Which IC50 does the source give for Cc1cc2cnc(NC(=O)C3CC3c3ccccn3)cc2cc1C1CCN(C2(C)CCOC2)CC1 (single isomer, unassigned) [Ex-16.9, N-(7-methyl-6-(1-(3-methyltetrahydrofuran-3-yl)piperidin-4-yl)isoquinolin-3-yl)-2-(pyridin-2-yl)cyclopropane-1-carboxamide] here?
**A.** 0.132 nM

**Q.** Which IC50 does the source give for Cc1cc2cnc(NC(=O)C3CC3c3ccccn3)cc2cc1C1CCN(C2(C)CCOC2)CC1 (single isomer, unassigned) [Ex-16.10, N-(7-methyl-6-(1-(3-methyltetrahydrofuran-3-yl)piperidin-4-yl)isoquinolin-3-yl)-2-(pyridin-2-yl)cyclopropane-1-carboxamide] here?
**A.** 0.0813 nM

**Q.** Cc1cc2cnc(NC(=O)C3CC3c3ccccn3)cc2cc1C1CCN(C2(C)CCOC2)CC1 (single isomer, unassigned) [Ex-16.11, N-(7-methyl-6-(1-(3-methyltetrahydrofuran-3-yl)piperidin-4-yl)isoquinolin-3-yl)-2-(pyridin-2-yl)cyclopropane-1-carboxamide] was tested. Which IC50 did it give?
**A.** 0.955 nM

**Q.** How did the IC50 turn out when Cc1cc2cnc(NC(=O)C3CC3c3ccccn3)cc2cc1C1CCN(C2(C)CCOC2)CC1 (single isomer, unassigned) [Ex-16.12, N-(7-methyl-6-(1-(3-methyltetrahydrofuran-3-yl)piperidin-4-yl)isoquinolin-3-yl)-2-(pyridin-2-yl)cyclopropane-1-carboxamide] was run?
**A.** 0.0813 nM

**Q.** Cc1cc2cnc(NC(=O)C3CC34CC4)cc2cc1C1CCN(C2(C)COCC2O)CC1 (single isomer, unassigned) [Ex-16.13, N-(6-(1-(4-hydroxy-3-methyltetrahydrofuran-3-yl)piperidin-4-yl)-7-methylisoquinolin-3-yl)spiro[2.2]pentane-1-carboxamide] was tested. Which IC50 did it give?
**A.** 0.0813 nM

**Q.** How did the IC50 turn out when N#CC1(c2ccc3cnc(NC(=O)C4CC4)cc3c2)CC12CC2 (single isomer, unassigned) [Ex-18.1, N-(6-(1-cyanospiro[2.2]pentan-1-yl)isoquinolin-3-yl)cyclopropanecarboxamide] was run?
**A.** 2.29 nM

**Q.** Which IC50 does the source give for N#CC1(c2ccc3cnc(NC(=O)C4CC4)cc3c2)CC12CC2 (single isomer, unassigned) [Ex-18.2, N-(6-(1-cyanospiro[2.2]pentan-1-yl)isoquinolin-3-yl)cyclopropanecarboxamide] here?
**A.** 3.63 nM

**Q.** With CC1(C)CC1(C#N)c1ccc2cnc(NC(=O)C3CC3)cc2c1 (single isomer, unassigned) [Ex-18.3, (R or S)-N-(6-(1-cyano-2,2-dimethylcyclopropyl)isoquinolin-3-yl)cyclopropanecarboxamide] as the compound, how does the IC50 read?
**A.** 24 nM

**Q.** How did the IC50 turn out when CC1(C)CC1(C#N)c1ccc2cnc(NC(=O)C3CC3)cc2c1 (single isomer, unassigned) [Ex-18.4, (R or S)-N-(6-(1-cyano-2,2-dimethylcyclopropyl)isoquinolin-3-yl)cyclopropanecarboxamide] was run?
**A.** 61.7 nM

**Q.** Which IC50 does the source give for CC1CC1(C#N)c1ccc2cnc(NC(=O)C3CC3)cc2c1 (single isomer, unassigned) [Ex-18.5, (R or S)-N-(6-(1-cyano-2-methylcyclopropyl)isoquinolin-3-yl)cyclopropanecarboxamide] here?
**A.** 5.75 nM

**Q.** For CC1CC1(C#N)c1ccc2cnc(NC(=O)C3CC3)cc2c1 (single isomer, unassigned) [Ex-18.6, (R or S)-N-(6-(1-cyano-2-methylcyclopropyl)isoquinolin-3-yl)cyclopropanecarboxamide], which IC50 is on record?
**A.** 60.3 nM

**Q.** Which IC50 does the source give for CC1CC1(C#N)c1ccc2cnc(NC(=O)C3CC3)cc2c1 (single isomer, unassigned) [Ex-18.7, (R or S)-N-(6-(1-cyano-2-methylcyclopropyl)isoquinolin-3-yl)cyclopropanecarboxamide] here?
**A.** 4.57 nM

**Q.** How did the IC50 turn out when CC1CC1(C#N)c1ccc2cnc(NC(=O)C3CC3)cc2c1 (single isomer, unassigned) [Ex-18.8, (R or S)-N-(6-(1-cyano-2-methylcyclopropyl)isoquinolin-3-yl)cyclopropanecarboxamide] was run?
**A.** 5.37 nM

**Q.** For N#CC1(c2cc3cc(NC(=O)C4CC4)ncc3cc2F)CC12CC2 (single isomer, unassigned) [Ex-18.9, (R or S)-N-(6-(1-cyanospiro[2.2]pentan-1-yl)-7-fluoroisoquinolin-3-yl)cyclopropanecarboxamide], which IC50 is on record?
**A.** 35.5 nM

**Q.** Which IC50 does the source give for N#CC1(c2cc3cc(NC(=O)C4CC4)ncc3cc2F)CC12CC2 (single isomer, unassigned) [Ex-18.10, (R or S)-N-(6-(1-cyanospiro[2.2]pentan-1-yl)-7-fluoroisoquinolin-3-yl)cyclopropanecarboxamide] here?
**A.** 12.6 nM

**Q.** N#CC1(c2ccc3cnc(NC(=O)C4CC45CCOCC5)cc3c2)CC12CC2 (single isomer, unassigned) [Ex-18.11, (R or S)-N-(6-((R or S)-1-cyanospiro[2.2]pentan-1-yl)isoquinolin-3-yl)-6-oxaspiro[2.5]octane-1-carboxamide] was tested. Which IC50 did it give?
**A.** 9.55 nM

**Q.** With N#CC1(c2ccc3cnc(NC(=O)C4CC45CCOCC5)cc3c2)CC12CC2 (single isomer, unassigned) [Ex-18.12, (R or S)-N-(6-((R or S)-1-cyanospiro[2.2]pentan-1-yl)isoquinolin-3-yl)-6-oxaspiro[2.5]octane-1-carboxamide] as the compound, how does the IC50 read?
**A.** 1.62 nM

**Q.** Which IC50 does the source give for N#CC1(c2cc3cc(NC(=O)C4CC4c4ccccn4)ncc3cc2F)CC12CC2 (single isomer, unassigned) [Ex-18.13, (1R,2R or 1S,2S)-N-(6-((R or S)-1-cyanospiro[2.2]pentan-1-yl)-7-fluoroisoquinolin-3-yl)-2-(pyridin-2-yl)cyclopropane-1-carboxamide] here?
**A.** 7.41 nM

**Q.** N#CC1(c2cc3cc(NC(=O)C4CC4c4ccccn4)ncc3cc2F)CC12CC2 (single isomer, unassigned) [Ex-18.14, (1R,2R or 1S,2S)-N-(6-((R or S)-1-cyanospiro[2.2]pentan-1-yl)-7-fluoroisoquinolin-3-yl)-2-(pyridin-2-yl)cyclopropane-1-carboxamide] was tested. Which IC50 did it give?
**A.** 60.3 nM

**Q.** Which IC50 does the source give for Cn1cc(C(=O)Nc2cc3cc(C4(C#N)CC45CC5)ccc3cn2)cn1 (single isomer, unassigned) [Ex-18.15, (R or S)-N-(6-(1-cyanospiro[2.2]pentan-1-yl)isoquinolin-3-yl)-1-methyl-1H-pyrazole-4-carboxamide] here?
**A.** 0.631 nM

**Q.** Which IC50 does the source give for Cn1cc(C(=O)Nc2cc3cc(C4(C#N)CC45CC5)ccc3cn2)cn1 (single isomer, unassigned) [Ex-18.16, (R or S)-N-(6-(1-cyanospiro[2.2]pentan-1-yl)isoquinolin-3-yl)-1-methyl-1H-pyrazole-4-carboxamide] here?
**A.** 3.09 nM

**Q.** With CCC(=O)N1CC(C(=O)Nc2cc3cc(C4(C#N)CC45CC5)ccc3cn2)C1 (single isomer, unassigned) [Ex-19.1, (R or S)-N-(6-(1-cyanospiro[2.2]pentan-1-yl)isoquinolin-3-yl)-1-propionylazetidine-3-carboxamide] as the compound, how does the IC50 read?
**A.** 10.7 nM

**Q.** For CC(C)(O)C1CC1C(=O)Nc1cc2cc(C3CCN(C4(C)COC4)CC3)c(Cl)cc2cn1 (single isomer, unassigned) [Ex-22.1, (1R,2R or 1S,2S)-N-(7-chloro-6-(1-(3-methyloxetan-3-yl)piperidin-4-yl)isoquinolin-3-yl)-2-(2-hydroxypropan-2-yl)cyclopropanecarboxamide], which IC50 is on record?
**A.** 4.47 nM
